Data as given in patent publication US8318504B2, “MRP2 efflux pathway prognostic method” (priority 2009, dated 2012).

How the values were obtained:
NTCP [1] = biological target: T1, NTCP (Homo sapiens, UniProt Q14973); test: Uptake of TC and CLF into CHO cells stably expressing NTCP; format: cell-based; conditions: 1 μmol/L CLF, 1 and 5 minutes, fluorescence analysis and quantitative determination
T1 construct: the coding region ligated into pcDNA5/FRT; expressed in transfected cells
T1 sequence (Q14973 1-349): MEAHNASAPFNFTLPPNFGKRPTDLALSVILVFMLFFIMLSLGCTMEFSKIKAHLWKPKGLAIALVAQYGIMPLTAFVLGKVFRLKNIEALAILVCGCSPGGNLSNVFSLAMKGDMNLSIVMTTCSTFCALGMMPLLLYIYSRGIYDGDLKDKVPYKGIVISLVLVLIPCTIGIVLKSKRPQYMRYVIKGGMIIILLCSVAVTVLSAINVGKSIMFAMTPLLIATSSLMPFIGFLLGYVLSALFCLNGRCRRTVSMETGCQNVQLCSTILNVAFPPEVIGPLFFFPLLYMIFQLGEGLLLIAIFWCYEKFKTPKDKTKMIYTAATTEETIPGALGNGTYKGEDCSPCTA
Experimental: cDNA for human NTCP [Hagenbuch et al., J Clin Invest 1994 March; 93(3): 1326-1331] was cut with EcoRV and HindI and the coding region ligated into pcDNA5/FRT (Invitrogen, Life-Technologies, Carlsbad, Calif.). CHO FlpIn cells (Invitrogen, Life-Technologies) were transfected with the resulting construct using Lipofectamine® 2000 (Invitrogen, Life-Technologies). Stably transfected cells were selected with 550 μg Hygromycin-B in HAM-F12 medium (Gibco, Invitrogen, Life-Technologies). Transfected cells were cloned with the limiting dilution method. […] To further characterize the cloned cells, immunofluorescence localization of NTCP using a polyclonal antibody against NTCP [Kullak-Ublick G et al., Gastroenterology 1997 October; 113(4):1295-1305] was performed as described by Huber R D et al. [Am J Physiol Cell Physiol 2007 February; 292(2):[…]-[…]]. CHO cells expressing OATP1B1, OATP1B3 and OATP2B1 were described previously [Treiber et al., DMD 35:1400-1407, 2007]. For all transport experiments, cells grown on 3 cm culture dishes were cultured for 24 hours in media supplemented with 5 mmol/L sodium-butyrate to increase expression levels of transfected transporters [Palermo D P et al., J Biotechnol 1991 June; 19(1):35-47]. • Transport experiments with uptake of radioactively labeled substrates: These experiments were performed as described by Huber R D et al. […] Uptake was performed in the same buffers as for the radioactive substrates above. For visualization of CLF uptake, cells were immediately inspected with a Leica-DM-IRBE-inverted-microcope (Leica-Microsystems, Wetzlar, Germany) equipped with a Hamamatsu-ORKA-ER-camera (Hamamatsu-Photonoics, Japan). To determine uptake of CLF, cells were solubilized by the addition of 2 ml 1% (w/v) Triton-X-100. After complete solubilization, 1.5 ml was used to measure fluorescence in a Perkin-Elmer LS-5 luminescence-spectrometer set at λexe 486 nm (slit 10 nm) and λem 520 nm (slit 5 nm). Protein was determined with the bicinchoninic acid method using a kit from Interchim (Montfuçon, France). […]

NTCP [2] = biological target: T1, NTCP; test: Inhibition by CLF of TC transport in CHO cells expressing NTCP; format: cell-based; conditions: 0, 5 or 50 μmol/L CLF, 2.5 μmol/L TC
Experimental: FIGS. 3A-3D relate to inhibition of transport activity of hepatocellular uptake transporters by CLF. CHO cells expressing NTCP, OATP1B1, OATP1B3 and OATP2B1 were incubated with 0, 5 or 50 μmol/L CLF and with the substrates, 2.5 μmol/L TC, 1 μmol/L estrone-3-sulfate, 10 μmol/L TC and 1 μmol/L estrone-3-sulfate, respectively. Data represent means±SD of triplicate determinations.
For all transport experiments, cells grown on 3 cm culture dishes were cultured for 24 hours in media supplemented with 5 mmol/L sodium-butyrate to increase expression levels of transfected transporters [Palermo D P et al., J Biotechnol 1991 June; 19(1):35-47]. • Transport experiments with uptake of radioactively labeled substrates: These experiments were performed as described by Huber R D et al. [Am J Physiol Cell Physiol 2007 February; 292(2):C795-C806]. • Transport experiments with uptake of CLF: Uptake was performed in the same buffers as for the radioactive substrates above. […] After complete solubilization, 1.5 ml was used to measure fluorescence in a Perkin-Elmer LS-5 luminescence-spectrometer set at λexe 486 nm (slit 10 nm) and λem 520 nm (slit 5 nm). Protein was determined with the bicinchoninic acid method using a kit from Interchim (Montfuçon, France). […]

CC(CCC(=O)NC(CCCCNC(=S)Nc1ccc(-c2c3ccc(=O)cc-3oc3cc(O)ccc23)c(C(=O)O)c1)C(=O)O)C1CCC2C3C(O)CC4CC(O)CCC4(C)C3CC(O)C12C (centres unmarked) [CLF, cholyl lysyl fluorescein]
sodium-dependent uptake of CLF mediated by NTCP (NTCP [1]): no sodium-dependent uptake | inhibition of transport of TC via NTCP by CLF (NTCP [2]): very efficiently inhibited
